{
  "source": "patent US11819500B2",
  "about": "“T-cell regulation in t-cell mediated diseases by reducing pathogenic function of TH17 in a human subject through treatment with a nitroxide” (priority 2016, dated 2023)",
  "key": {"Unc5b": {"system": "Unc5b", "test": "Gene expression in cardiac tissue after Tempol administration (chip-based microarray)", "type": "in vivo", "details": "mice aged 31 months, Tempol 5 mg/g of food from 14 to 31 months, control mice 103", "description": "(§1) To assess the effects of Tempol on gene expression, Tempol was administered to experimental mice at a dose of 5 mg/g of food from 14 months to 31 months after birth. Mice receiving the same food without the addition of Tempol were used as a negative control. At the age of 31 months, the experimental animals were sacrificed and the hearts were surgically removed. The expression of a broad spectrum of genes in the cardiac tissue was assessed using chip-based microarray technology. Such chips are well known in the art and are widely used to assess gene expression."}, "Bri3 [1]": {"system": "Bri3", "test": "Gene expression in cardiac tissue after Tempol administration (chip-based microarray)", "type": "in vivo", "details": "mice aged 31 months, Tempol 5 mg/g of food from 14 to 31 months, control mice 1549", "description": "as §1"}, "Perp [2]": {"system": "Perp", "test": "Gene expression in cardiac tissue after Tempol administration (chip-based microarray)", "type": "in vivo", "details": "mice aged 31 months, Tempol 5 mg/g of food from 14 to 31 months, control mice 49", "description": "as §1"}, "Bag5": {"system": "Bag5", "test": "Gene expression in cardiac tissue after Tempol administration (chip-based microarray)", "type": "in vivo", "details": "mice aged 31 months, Tempol 5 mg/g of food from 14 to 31 months, control mice 300", "description": "as §1"}, "Cd5l [3]": {"system": "Cd5l", "test": "Gene expression in cardiac tissue after Tempol administration (chip-based microarray)", "type": "in vivo", "details": "mice aged 31 months, Tempol 5 mg/g of food from 14 to 31 months, control mice 150", "description": "as §1"}, "[4]": {"system": "Cd5l, Perp, Unc5b, Bag5 or Bri3", "details": "human, in vivo"}, "Cd5l [5]": {"system": "Cd5l", "test": "Serum level of Cd5l after Tempol treatment of a human subject", "type": "in vivo", "details": "1500 mg per day for 180 days", "description": "A human subject is administered a dose of 1500 mg of Tempol (or a nitroxide antioxidant) per day for 180 days. The human subject may be a 70-kilogram human subject. The human subject may be at risk of having pathogenic T-helper cell activity, may have symptoms of pathogenic T-helper cell activity, and/or may have a disease (e.g., an autoimmune disease) associated with pathogenic T-helper cell activity (e.g., pathogenic T-helper 17 cell activity). The autoimmune disease may be mediated by IL-23 as an effector molecule. The human subject can be identified. The dose may be administered in a single dose, or may be administered as a number of smaller doses over a 24-hour period: for example, three 500-mg doses at eight-hour intervals. Following treatment, the serum level of Cd5l is increased. Increased Cd5l expression can alter lipid biosynthesis within the T-helper cell, thus suppressing the pathogenic T-helper cell activity and/or reversing the effect of the pathogenic T-helper cell activity.\nA human subject is administered a dose of 1500 mg of Tempol (or a nitroxide antioxidant) per day for 180 days. The human subject may be a 70-kilogram human subject. The human subject may be at risk of developing an autoimmune disease, may have symptoms of an autoimmune disease, and/or may have an autoimmune disease. The autoimmune disease may be mediated by IL-23 as an effector molecule. […]"}, "Perp [6]": {"system": "Perp", "test": "Level of Perp after Tempol treatment of a human subject", "type": "in vivo", "details": "70-kilogram human subject with a disorder such as a desmosome-associated disorder; 1500 mg per day for 180 days", "description": "A human subject is administered a dose of 1500 mg of Tempol (or a nitroxide antioxidant) per day for 180 days. The human subject is a 70-kilogram human subject. The human subject may have a disorder (such as a desmosome-associated disorder, which can be associated or characterized by damaged epithelial tissue). The human subject can be identified. The dose may be administered in a single dose, or may be administered as a number of smaller doses over a 24-hour period: for example, three 500-mg doses at eight-hour intervals. Following treatment, the level (e.g., the serum level) of Perp is increased, which can in turn increase desmosome function (e.g., characterized by epithelial integrity)"}, "Bri3 [7]": {"system": "Bri3", "test": "Serum level of Bri3 after Tempol treatment of a human subject", "type": "in vivo", "details": "human subject with or at risk of a neurodegenerative disease (e.g., Alzheimer's Disease); 1500 mg per day for 180 days", "description": "A human subject is administered a dose of 1500 mg of Tempol (or a nitroxide antioxidant) per day for 180 days. The human subject may be a 70-kilogram human subject over the age of 65. The human subject may be at risk of developing a neurodegenerative disease (e.g., Alzheimer's Disease), may have symptoms of a neurodegenerative disease, and/or may have a neurodegenerative disease. The risk, the symptoms, or the neurodegenerative disease may be caused by decreased expression level of Bri3. The human subject can be identified. The dose may be administered in a single dose, or may be administered as a number of smaller doses over a 24-hour period: for example, three 500-mg doses at eight-hour intervals. Following treatment, the serum level of Bri3 is increased. Increased Bri3 expression can inhibit amyloid precursor protein (APP) processing and amyloid plaque deposition, thus suppressing or reversing development of the neurodegenerative disease."}},
  "data": [
    {"smiles": "CC1(C)CC(O)CC(C)(C)N1[O]", "note": "[Tempol, 4-hydroxy-2,2,6,6-tetramethylpiperidine-1-oxyl]", "values": [
      {"measurement": "Unc5b expression, Tempol-treated mice", "setting": "Unc5b", "value": 172},
      {"measurement": "Bri3 expression, Tempol-treated mice", "setting": "Bri3 [1]", "value": 1835},
      {"measurement": "Perp expression, Tempol-treated mice", "setting": "Perp [2]", "value": 82},
      {"measurement": "Bag5 expression, Tempol-treated mice", "setting": "Bag5", "value": 370},
      {"measurement": "Cd5l expression, Tempol-treated mice", "setting": "Cd5l [3]", "value": 406},
      {"measurement": "serum level of Cd5l, Perp, Unc5b, Bag5 or Bri3", "setting": "[4]", "value": "increased"},
      {"measurement": "serum level of Cd5l", "setting": "Cd5l [5]; human subject with or at risk of developing an autoimmune disease", "value": "increased"},
      {"measurement": "serum level of Cd5l", "setting": "Cd5l [5]; human subject with or at risk of pathogenic T-helper cell activity", "value": "increased"},
      {"measurement": "level (e.g., the serum level) of Perp", "setting": "Perp [6]", "value": "increased"},
      {"measurement": "serum level of Bri3", "setting": "Bri3 [7]", "value": "increased"}
    ]}
  ]
}
